Results taken from patent US20240325435A1, “METHODS OF USING COMPOUND OF GLYCOSAMINOGLYCAN” (Holy Stone Healthcare Co., Ltd., priority 2013, published 2024).

Legend:
Raw 264.7 cells [1] = assay: In vitro anti-inflammatory effect, PGE2 amount in LPS-treated Raw 264.7 cells; type: cell-based; details: 4 hours
Method: Raw 264.7 cells (1×10^6 cells/well, 1000 μL) were incubated in a 24-well culture plate in the presence of 5% CO2 at 37° C. for 24 hours. • 2. […] Cell media were collected, and used for measuring PGE2. • 4. Nunc-Immuno 96-well plates were coated with goat polyclonal anti-mouse IgG secondary antibody. • 5. Aliquots of cell media were added to the immune plate with primary PGE2 monoclonal antibody and a tracer PGE2-acetylcholinesterase overnight at room temperature in the dark. • 6. The next day, the wells were aspirated, washed with 100 μL wash buffer (Cayman Chemical, Ann Arbor, MI, USA) five times. • 7. 200 μL of Elman's reagent was added in each well, and incubated 60-90 minutes at room temperature out of direct light. • 8. Gentle rotating/shaking was used to decrease the time required for color development. • 9. Absorbance was read at 412 nm. • 10. The PGE2 concentration of each sample was calculated from a PGE2 standard curve. • 11. The PGE2 amount percentage was as a function of the PGE2 level of each sample divided by the one of the control group which was LPS-treated, then multiplied this value by 100. • 12. […]
Raw 264.7 cells (1×10^6 cells/well, 1000 μL) were incubated in a 24-well culture plate in the presence of 5% CO2 at 37° C. for 24 hours. • 2. […] Absorbance was read at 412 nm. • 10. The PGE2 concentration of each sample was calculated from a PGE2 standard curve. • 11. […]

[2] = tested on: Adjuvant-Induced Arthritis (AIA); assay: Adjuvant-Induced Arthritis (rheumatoid arthritis) treatment effect in rats; type: in vivo, Sprague-Dawely rats; details: intravenous injection at day 14, 10 mg/kg
Method: • 1. Thirty of eight weeks male Sprague-Dawely rats (BioLASCO Taiwan Co., Ltd.) were prepared. Rats were divided into 4 groups randomly (n=9 for vehicle and Prednisolone group, n=6 for HA-ADH-Prednisolone and HA group). Every two rats were placed into one cage in rodent animal facility in Institute of Taiwan Animal Technology. • 2. Inject 0.1 mL of CFA (Complete Freund's Adjuvant, 10 mg/mL, Chondrex Inc.) containing 10 mg/mL of heat-killed mycobacterium into subcutaneously at a footpad of right hind limb. • 3. The needle should be inserted just under the skin of the footpad pointing toward the ankle: this maximizes delivery of the adjuvant to the draining popliteal lymph nodes. • 4. Severe and acute inflammation is observed within 30 minutes of injection, peaks within 3 to 4 days, and often persists for 20 to 25 days. • 5. Rat were treated at day 14 after induction of the Adjuvant-Induced Arthritis (AIA) by intravenous injection of Prednisolone or HA-Prednisolone (both 10 mg/kg), or saline as a control. • 6. Rats were sacrificed at day 20 after treatment and tissues were isolated hereafter.
• Paw thickness and Ankle circumference: Paw thickness determined by measuring paw diameter using a caliper, such as Mitsutoyo digimatic caliper. Ankle circumference determined by measuring 2 perpendicular diameters, the latero-lateral diameter (a) and the anteroposterior diameter (b), with a digital caliper and using the following formula: […]

Raw 264.7 cells [3] = assay: In vitro anti-inflammatory effect, nitrite by Griess reaction in LPS-treated Raw 264.7 cells; type: cell-based; details: 10 μM Budesonide equivalent, 378 μg/ml HA, 4 hours, then 1 μg/mL LPS 24 hours
Method: • 1. Raw 264.7 cells were suspended in culture medium without phenol red (Gibco-BRL, Vienna, Austria) and adjusted to 10^6/ml, and treated with 10 μM Budesonide, 378 μg/ml HA and HA-ADH-Budesonide (equal to 10 μM Budesonide). • 2. After treatment with drugs for 4 hours, 1 μg/mL LPS was added into medium for 24 hours. • 3. Cells treated with medium only served as a negative control group and treated with LPS (1 μg/mL) as a positive control group. • 4. The culture supernatants were removed subsequently and the nitric oxide were accumulated for the measurement of iNOS activity by the Griess-reaction. • 5. 100 μl Griess reagent (1% sulfanilamide, 0.1% naphthlethylenediamine dihydrochloride in 2.5% phosphoric acid) was added into 100 μl culture supernatant and the color development was assessed at 550 nm with a ELISA microplate reader (SpectraMax® M2e Multimode Plate Reader, Molecular Devices, USA). • 6. Standard curves were generated with a serial dilution of sodium nitrite dissolved in culture medium which is phenol red free. […] The inflammation index herein is nitrite.

Row | Compound | anti-inflammation effect, change percentage of PGE2 amount (FIG. 8) (Raw 264.7 cells [1]; 100 μM Fexofenadine or equivalent, then 1 μg/mL LPS 24 h) | anti-inflammation effect, change percentage of PGE2 amount (FIG. 10) (Raw 264.7 cells [1]; 86.7 μM Prednisolone or equivalent, then 1 μg/mL LPS 24 hours) | treatment effect, change percentage of paw thickness (FIG. 11) [2] | anti-inflammation effect, change of nitrite concentration (FIG. 6) (Raw 264.7 cells [3]) | treatment effect, change percentage of ankle circumference (FIG. 12) [2]
1 | CC(C)(C(=O)O)c1ccc(C(O)CCCN2CCC(C(O)(c3ccccc3)c3ccccc3)CC2)cc1 (stereo not drawn) [Fexofenadine] | has treatment effect |  |  |  | 
2 | C[C@]12C=CC(=O)C=C1CC[C@@H]1[C@@H]2[C@@H](O)C[C@@]2(C)[C@H]1CC[C@]2(O)C(=O)CO [Prednisolone] |  | has treatment effect | showed the treatment effect |  | 
3 | hyaluronic acid [HA] |  |  | almost the same trend comparing with control group | have treatment effect | enhance RA symptom
